Source: article PMC5635289, “Differential Effects of Angelicin Analogues on NF-κB Activity and IL-8 Gene Expression in Cystic Fibrosis IB3-1 Cells” (Mediators of Inflammation, 2017)

Legend:
[1] = system: other cytokines, chemokines, and growth factors; experiment: Bioplex analysis of other secreted proteins in TNF-α-induced IB3-1 cells; format: cell-based, human; settings: 1 μM, TNF-α-stimulated IB3-1 cells, all secreted proteins analyzed except IP-10
Protocol: The Bioplex cytokine assay is designed for the multiplexed quantitative measurement of multiple cytokines in a single well using as little as 50 μl of sample. In our experiments, the premixed multiplex beads (27-plex) of the Bioplex human cytokines were used. 50 μl of cytokine standards or samples (supernatants recovered from treated cells and diluted to 2 μg/μl) were incubated with 50 μl of anticytokine conjugated beads in 96-well filter plates for 30 min at room temperature with shaking. Plates were washed by vacuum filtration three times with 100 μl of Bioplex wash buffer, 25 μl of diluted detection antibody were added, and plates were incubated for 30 min at room temperature with shaking. After three filter washes, 50 μl of streptavidin-phycoerythrin were added, and the plates were incubated for 10 min at room temperature with shaking. Finally, plates were washed by vacuum filtration three times, beads were suspended in Bioplex assay buffer, and samples were analyzed on a Bio-Rad 96-well plate reader using the Bioplex Suspension Array System and Bioplex Manager software (Bio-Rad Laboratories Inc., Hercules, CA).
In order to verify the effects on the secretion of IL-8 by IB3-1 cells, Luminex technology was employed to detect and quantify proteins secreted into the medium. […]

[2] = system: IL-8 mRNA; experiment: RT-qPCR quantification of IL-8 mRNA in TNF-α-induced IB3-1 cells; format: cell-based, human; settings: Homo sapiens, IB3-1, 24 h, TNF-α-induced IB3-1 cells, RT-qPCR, na = not active at the used concentrations
Protocol: Monolayers of 60% confluent IB3-1 cells were seeded in 6- or 12-well plates in LHC-8 medium in the presence of 5% FBS. After 24 h, pure derivatives were added, 5 h before stimulation with TNF-α 80 ng/ml (ORF Genetics, Kopavogur, Iceland), and incubated for a further 24 h. Total RNA was extracted using TRIzol Reagent (Sigma-Aldrich, St. Louis, MO) following the manufacturer's instructions. Reverse transcription (RT) was performed using Reverse Transcription System kit (Promega, Madison, WI): 1 μg of total RNA was reverse transcribed in the presence of 5 mM MgCl2, 1X reverse transcription buffer (10 mM Tris-HCl, 50 mM KCl, and 0.1% Triton X-100), 1 mM each dNTPs, 20 U recombinant Rnasin Ribonuclease Inhibitor, 15 U AMV Reverse Transcriptase, and 0.5 μg oligo(dT)15 primers in a total volume of 20 μl for 10 min at 70°C and 60 min at 42°C. The resulting cDNA was quantified by relative quantitative real-time PCR (real-time qPCR). For real-time qPCR, 1 μl of cDNA was used for each SYBR Green reaction to quantify the relative expression of IL-8. Each 25 μl of total reaction volume contained 1 μl of cDNA, 10 pmol of primers, 1 iQTM SYBR Green Supermix (Bio-Rad Laboratories Inc., Hercules, CA). Real-time PCRs were performed for a total of 40 cycles (denaturation, 95°C for 10 s; annealing, 68°C for 30 s for IL-8, 65°C for 30 s for IL-6; elongation, 72°C for 60 s) using an iCycler IQ5 (Bio-Rad Laboratories Inc., Hercules, CA). Primer sequences were as follows: IL-8 forward: 5′-GTGCAGTTTTGCCAAGGAGT-3′ and IL-8 reverse: 5′-TTATGAATTCTCAGCCCTCTTCAAAAACTTCTC-3′. The relative proportions of each amplified template were determined utilizing the threshold cycle (CT) value for each performed PCR. The DDCt method was used to compare gene expression data. Each sample was quantified in duplicate. Changes in mRNA expression level were calculated following normalization with the GAPDH calibrator gene (housekeeping gene) and expressed as fold change over untreated samples [24]. Duplicates of negative controls (no template cDNA) were also run with every experimental plate to assess specificity and indicate potential contamination.
With the aim to study the effective anti-inflammatory properties of these new psoralen derivatives, we decided to further characterize the TMA derivatives for their potential activities on the expression of IL-8 gene, known to be involved in the lung inflammatory process in CF. […] More specifically, we were first interested in identifying compounds with low antiproliferative activity, but effective in downmodulating inflammatory gene expression without achieving a full suppression of these genes. We therefore employed IB3-1 cystic fibrosis cells, incubated for 5 h with two concentrations (1 μM and 10 μM) of selected compounds, and then treated with TNF-α ([…]). In the IB3-1 cystic fibrosis cellular model, NF-κB-dependent genes, including the gene encoding for the proinflammatory protein IL-8, generally are activated following infection with P. aeruginosa or treatment with TNF-α or IL-1β [26, 28, 31]. This feature is very important in the pathophysiology of CF, since several clinical complications are caused by exacerbation of this inflammatory response. After 1 day of incubation, cellular RNA was isolated for RT-qPCR analysis. All the TMA analogues found to be active in inhibiting NF-κB/DNA interactions were analyzed for their effects on inhibition of TNF-α-induced accumulation of IL-8 mRNA.

Cc1oc2c(C)cc3c(C)cc(=O)oc3c2c1C [Compound 1]
Variation of other secreted proteins [1]: less than 10% | inhibition at 1 µM ([2]; 1 μM compound): 57% | inhibition at 10 µM ([2]; 10 μM compound): 56%
